Reference: patent publication US7452688B2, “Transformed cell with enhanced sensitivity to antifungal compound and use thereof” (Sumitomo Chemical Company, Limited, priority 2002, dated 2008)

Tested on: transformed budding yeast TM182-BcOS1-I365S
Assay: Antifungal compound sensitivity test of transformed budding yeast TM182-BcOS1-I365S (Example 6)
Type: cell-based, Saccharomyces cerevisiae
Details: 30° C. 67 hours; for Degree of growth of budding yeast (%) TM182-BcOS1-I365S Gal-Ura-Leu medium: control medium
Method: The transformed budding yeast TM182-BcOS1-I365S prepared in Example 5 was cultured at 30° C. for 18 hours in a Glu-Ura-Leu medium. The absorbance at 600 nm of a cell suspension of the grown transformed budding yeast was measured, and a cell suspension diluted with sterilized distilled water to the absorbance of 0.1 was prepared. Further, a cell suspension in which the aforementioned cell suspension of the transformed budding yeast TM182-BcOS1-I365S was diluted 200-fold with a Glu-Ura-Leu medium and, as a control, a cell suspension in which the cell suspension was diluted 200-fold with a Gal-Ura-Leu medium were prepared. A solution in which each of Compound (1) to (3) was dissolved in dimethylsulfoxide (DMSO) to the concentration of 60 ppm, a solution in which each of Compounds (4) and (5) was dissolved in dimethylsulfoxide (DMSO) to the concentration of 2000 ppm, and a solution in which each of Compounds (6) and (7) was dissolved in dimethylsulfoxide (DMSO) to the concentration of 20 ppm were prepared, and two microplates were prepared in which each 2.0 μL per well of the Compound solution and DMSO as a control were dispensed into two wells. In one microplate among them, each 200 μL of cell suspensions of the transformed budding yeast TM182-BcOS1-I365S which had been prepared by dilution with a Glu-Ura-Leu medium as described above was dispensed, and cultured by allowing to stand at 30° C. for 67 hours. In another microplate, as a control, each 200 μL of cell suspensions of the transformed budding yeast TM182-BcOS1-I 365S which had been prepared by dilution with a Gal-Ura-Leu medium was dispensed, and cultured by allowing to stand at 30° C. for 67 hours. After culturing, the absorbance at 600 nm of each well was measured with a microplate reader.
Degrees of growths of both of the transformed budding yeasts cultured under the presence of Compounds (1) to (7) and budding yeast as a control therefor are shown in Table 2. Degrees of growths of both of the transformed budding yeasts and budding yeast as a control are expressed by a relative value in percentage, letting the absorbance at 600 nm at the concentration of the Compound of 0 ppm to be 100. It was confirmed that an inhibiting degree of growth of the transformed budding yeast TM182-BcOS1-I 365S by each test substance was grater than an inhibiting degree of growth of the transformed budding yeast AH22-BcOS1-I 365S by each test substance, and the transformed budding yeast TM182-BcOS1-I365S was a transformed cell with the enhanced sensitivity to an antifungal compound as compared with the transformed budding yeast AH22-BcOS1-I365S.

| Structure (SMILES) | Degree of growth of budding yeast (%) TM182-BcOS1-I365S Gal-Ura-Leu medium (final concentration 0.2 ppm) [%] | Degree of growth of budding yeast (%) TM182-BcOS1-I365S Glu-Ura-Leu medium (final concentration 0.2 ppm) [%] | Degree of growth of budding yeast (%) TM182-BcOS1-I365S Gal-Ura-Leu medium (final concentration 20 ppm) [%] | Degree of growth of budding yeast (%) TM182-BcOS1-I365S Glu-Ura-Leu medium (final concentration 20 ppm) [%] |
| --- | --- | --- | --- | --- |
| N#Cc1c[nH]cc1-c1cccc2c1OC(F)(F)O2 [Compound (6), Fludioxonil] | 93 | 7 | – | – |
| O=[N+]([O-])c1c(Cl)c(Cl)c(Cl)c(Cl)c1Cl [Compound (4), Quintozene] | – | – | 101 | 41 |
| COP(=S)(OC)Oc1c(Cl)cc(C)cc1Cl [Compound (5), Tolclofos-methyl] | – | – | 76 | 13 |
| N#Cc1c[nH]cc1-c1cccc(Cl)c1Cl [Compound (7), Fenpiclonil] | 90 | 22 | – | – |
